# Key:
# [1] = Inhibition of porcine succinate-cytochrome c reductase using succinate and cytochrome c as substrate by spectrophotometric analysis; set-up: species or system Sus scrofa
# [2] = species: Sus scrofa; assay: Inhibition of porcine succinate-cytochrome c reductase at 10 uM using succinate and cytochrome c as substrate by spectrophotometric analysis relative to control
# [3] = species: Sus scrofa; assay: Inhibition of porcine succinate-cytochrome c reductase complex 2 at 10 uM using succinate and dichlorophenolindophenol as substrate by spectrophotometric analysis relative to control
# [4] = species: Sus scrofa; assay: Inhibition of porcine succinate-cytochrome c reductase complex 3 at 10 uM using decylubiquinol and cytochrome c as substrate by spectrophotometric analysis relative to control
smiles,measurement,setting,value
CC(C)CC(C)c1sccc1NC(=O)c1cn(C)nc1C(F)(F)F (stereo not drawn) [PENTHIOPYRAD],IC50,[1],1320 nM
same,inhibition,[2],82%
same,inhibition,[3],90%
same,inhibition,[4],< 10%
CO/C=C(\C(=O)OC)c1ccccc1Oc1cc(Oc2ccccc2C#N)ncn1 [Azoxystrobin],IC50,[1],287 nM
same,inhibition,[2],99%
same,inhibition,[3],23%
same,inhibition,[4],92%
Cc1ccc(Nc2ccc(Oc3ccccc3)cc2)cc1,IC50,[1],> 10000 nM
Fc1ccc(Br)cc1Oc1ccc(Nc2ccccc2)cc1,IC50,[1],> 10000 nM
FC(F)(F)c1ccc(Nc2ccc(Oc3ccccc3)cc2)cc1,IC50,[1],201 nM
c1ccc(COc2ccc(Oc3ccc(Nc4ccccc4)cc3)cc2)cc1,IC50,[1],> 10000 nM
Cc1ccccc1Nc1ccc(Oc2ccccc2)cc1,IC50,[1],> 10000 nM
Clc1ccc(Oc2c(Cl)cc(Nc3ccccc3)cc2Cl)c(Cl)c1,IC50,[1],41 nM
Fc1ccccc1Oc1ccc(Nc2ccccc2)cc1,IC50,[1],> 10000 nM
Clc1cccc(Nc2ccc(Oc3ccccc3)cc2)c1,IC50,[1],> 10000 nM
FC(F)(F)c1cccc(Nc2ccc(Oc3ccccc3)cc2)c1,IC50,[1],362 nM
Cc1cccc(Nc2ccc(Oc3ccccc3)cc2)c1,IC50,[1],> 10000 nM
Brc1cc(Nc2ccccc2)ccc1Oc1ccccc1,IC50,[1],323 nM
Brc1ccccc1Oc1ccc(Nc2ccccc2)cc1,IC50,[1],> 10000 nM
Clc1cc(Nc2ccccc2)cc(Cl)c1Oc1ccc2ccccc2c1,IC50,[1],30 nM
same,inhibition,[2],78%
same,inhibition,[3],42%
same,inhibition,[4],15%
Fc1ccc(Nc2ccc(Oc3ccccc3)cc2)cc1,IC50,[1],> 10000 nM
Clc1cc(Cl)c(Oc2c(Cl)cc(Nc3ccccc3)cc2Cl)c(Cl)c1,IC50,[1],21 nM
same,inhibition,[2],89%
same,inhibition,[3],37%
same,inhibition,[4],13%
N#Cc1ccccc1Oc1ccc(Nc2ccccc2)cc1,IC50,[1],> 10000 nM
CC(C)(C)c1ccc(Nc2ccc(Oc3ccccc3)cc2)cc1,IC50,[1],> 10000 nM
COc1ccc(Oc2ccc(Nc3ccccc3)cc2)cc1,IC50,[1],> 10000 nM
Clc1ccc(Nc2ccc(Oc3ccccc3)cc2)cc1,IC50,[1],464 nM
c1ccc(Nc2ccc(Oc3ccccc3)cc2)cc1,IC50,[1],> 10000 nM
Clc1ccc(Oc2ccc(Nc3ccccc3)cc2)c(Cl)c1,IC50,[1],172 nM
Clc1ccc(Oc2ccc(Nc3ccccc3)cc2Cl)c(Cl)c1,IC50,[1],43 nM
Fc1cccc(Nc2ccc(Oc3ccccc3)cc2)c1,IC50,[1],723 nM
Fc1cccc(Oc2ccc(Nc3ccccc3)cc2)c1F,IC50,[1],1450 nM
